Measured values: US6387955B1, “Enhanced anti-angiogenic activity of permanently charged derivatives of steroid hormones” (Pharmos Corporation, priority 1997, dated 2002)

Legend:
MCF-7 tumors [1] = test: Growth of MCF-7 tumors implanted in ventral fat pad of nude mice, tumor size by MRI; type: in vivo; conditions: for change in tumor size relative to day 0 (in words): slow-release pellet s.c. in flank, 25 day time course, MRI
Protocol: (§1) Female CD1-nu/nu athymic mice (6 weeks old) were obtained from the Weizmann Institute Department of Animal Services. MCF-7 cells, serially passed as described above, were detached from the culturing flasks with 0.03% EDTA in phosphate buffered saline (PBS) and washed several times in normal saline. Cells (10^7/innoculum) were then injected into the ventral fat pad at the level of the breast. Coincident with cell introduction, a slow-release pellet of estradiol (0.72 mg/pellet, 45-day release profile; Innovative Research, Sarasota, Fla.) was implanted subcutaneously in the flank of the animal. Mice were anesthetized with ketamine/Rompun (i.p.) for the surgical procedures. […] At this point, animals were randomized into four study groups. In the first, the estrogen pellet was removed and replaced with a slow-release TMI-laden pellet (6.3 mg, 45-day release) (n=5). In the second group, the estrogen pellet was removed and replaced with a tamoxifen pellet (n=7). The third group was treated with a blank (placebo) pellet (n=5), while the fourth group was reimplanted with an estradiol pellet (n=4). TMI and placebo-treated animals were imaged (under ketamine/Rompun anesthesia) either immediately before pellet exchange (day 0) or at day 3, 6, 12 and 25 after pellet exchange.
MRI images were recorded with a Bruker 4.7 (tesla)/30 Biospec spectrometer (Bruker Medizintechnik, Rheinstetten, Germany). 1H Spin-echo images were recorded at 200.12 MHz using a custom-made 4.5 cm rf coil with an image data matrix of 256×128 pixels. Pilot scans of the tumors were completed using a fast transverse multi-slice spin-echo sequence (giving T1-weighted spectra; inter-echo time (TE)=16 msec, recovery time (TR)=500 msec) followed by T2-weighted sequences in which axial slices perpendicular to the spine (i.e., a coronal orientation) were recorded. In the latter case, spin-echo images were obtained using a 4 cm field of view, 1 mm slice thickness, 1.2 mm slice-to-slice distance and a four-sequence average. The TE and TR were optimized to provide the best image contrast generating values of 80 and 3200 msec, respectively. This gave a total imaging time of approximately 30 min. […] Tumor size was calculated using a slice-to-slice reconstruction in which the slice surface area was obtained from histograms provided by the resident Bruker software package using the following relationship: […]
where XSA is the cross-sectional area of an internal slice, ES is the cross-sectional area of an edge slice, l is the slice thickness and ssd is the distance from the middle of one slice to the middle of the next. For image analysis, the average pixel intensity of viable portions of MCF-7 tumors was determined from a central tumor slice using histograms generated by the dedicated Bruker software package. […]

MCF-7 tumors [2] = test: Tumor necrosis in MCF-7 tumors by T2-weighted MRI; type: in vivo, nude mice
Protocol: as §1
MRI images were recorded with a Bruker 4.7 (tesla)/30 Biospec spectrometer (Bruker Medizintechnik, Rheinstetten, Germany). 1H Spin-echo images were recorded at 200.12 MHz using a custom-made 4.5 cm rf coil with an image data matrix of 256×128 pixels. Pilot scans of the tumors were completed using a fast transverse multi-slice spin-echo sequence (giving T1-weighted spectra; inter-echo time (TE)=16 msec, recovery time (TR)=500 msec) followed by T2-weighted sequences in which axial slices perpendicular to the spine (i.e., a coronal orientation) were recorded. In the latter case, spin-echo images were obtained using a 4 cm field of view, 1 mm slice thickness, 1.2 mm slice-to-slice distance and a four-sequence average. The TE and TR were optimized to provide the best image contrast generating values of 80 and 3200 msec, respectively. This gave a total imaging time of approximately 30 min. Under the conditions reported, the in-plane resolution was 155×310 μm. Tumor size was calculated using a slice-to-slice reconstruction in which the slice surface area was obtained from histograms provided by the resident Bruker software package using the following relationship:
where XSA is the cross-sectional area of an internal slice, ES is the cross-sectional area of an edge slice, l is the slice thickness and ssd is the distance from the middle of one slice to the middle of the next. For image analysis, the average pixel intensity of viable portions of MCF-7 tumors was determined from a central tumor slice using histograms generated by the dedicated Bruker software package. […] Fibrosis was defined as those areas manifesting a decrease in pixel intensity of […].
In vivo tumor histology was assessed for TMI and placebo-treated tumors using T2-weighted MR images. […] At this time, the area of necrosis was two-fold higher than that observed on day 0 (increasing from an average of 20% to approximately 40%).

[3] = system: gelatinase B (MMP-9), 92 kDa; test: Collagenolytic activity by zymography in human fibrosarcoma cell supernatant, gelatinase B; type: cell-based
Protocol: (§2) HT-1080 cells (CCL 121), derived from a metastatic lesion of a human fibrosarcoma and primary bovine endothelial cells were obtained from the American Type Culture collection (Rockville, Md.). Cells were maintained under an atmosphere of 5% CO2, in Dulbecco's Minimal Essential Medium (DMEM) supplemented with 10% fetal calf serum, glutamine, vitamins, non-essential amino acids and antibiotics (Biological Industries, Kibbutz Beth HaEmek, Israel).
(§3) Sub-confluent cell cultures were incubated for 6 to 24 hours in serum-free DMEM, either with or without various concentrations of TMI or tamoxifen, and the resultant supernatant was analyzed for collagenolytic activity. The collagenolytic activity was determined using a gelatin-impregnated (1 mg/ml, Difco, Detroit Mich.) SDS-PAGE 8% gel, as previously described, with minor modifications. Briefly, the culture media samples were separated on the substrate-impregnated gels under non-reducing conditions, followed by 30 min of incubation of 2.5% Triton X-100 (BDH, UK). The gels were then incubated for 16 hours at 37° C. in 50 mM TRIS, 0.2 M NaCl, 5 mM CaCl2, 0.02% BRIJ 35 (w/v) at pH 7.6. […] The intensity of the stained bands was then determined using a computerized densitometer (Molecular Dynamics Model 300A). […]

[4] = system: MCF-7 human breast cancer; conditions: MCF-7 human breast cancer implanted in nude mice; cited from earlier work
[5] = system: gelatinase A (MMP-2), 72 kDa; test: Collagenolytic activity by zymography in human fibrosarcoma cell supernatant, gelatinase A; type: cell-based
Protocol: as §2, §3

Tolerability in mice = type: in vivo
MCF-7 tumor = test: TBB in the MCF-7 model, daily dosing (preliminary data); type: in vivo, mice; conditions: two weeks of daily dosing
Description: Preliminary data on TBB in the MCF-7 model have also been generated. […] Administration of TBB to MCF-7 tumor-bearing mice caused significant tumor regression that amounted to 32% over two weeks of daily dosing. TMI induced a 20% regression over a 25 day time course.

[6] = doses 0.5 to 20 μM, 6 and 24 hours, result at or up to 20 μM
[7] = direct comparison, human fibrosarcoma cells

## C[C@]12CC[C@@H]3c4ccc(O)cc4CC[C@H]3[C@@H]1CC[C@@H]2O [estrogen, estradiol]
MCF-7 tumors [1]
  change in tumor size relative to day 0 (in words): more than doubled in size

## CC/C(=C(\c1ccccc1)c1ccc(OCCN(C)C)cc1)c1ccccc1 [tamoxifen, reference compound]
MCF-7 tumors [2]; preliminary comparison of TMI and tamoxifen
  maximum extent of necrosis: 50%
MCF-7 tumors [2]; sampling day after pellet exchange
  onset of tumor necrosis: ≤ 3 days
[3]; [6]
  inhibition of gelatinase B (MMP-9) collagenolytic activity: no significant inhibitory activity
[4]
  effect on tumor growth: merely slowed tumor growth
[5]; [6]
  inhibition of gelatinase A (MMP-2) collagenolytic activity: no significant inhibitory activity
MCF-7 tumors [1]; MCF-7 tumors in nude mice
  tolerance of tumors to the drug and regrowth over time: became tolerant to the effects of the drug and began to regrow over time
MCF-7 tumors [1]
  change in tumor size relative to day 0 (in words): tumoristatic

## Tamoxifen benzyl bromide [TBB]
[3]; [7]
  potency relative to TMI as inhibitor of 92 kDa (gelatinase B, MMP-9) collagenase: more potent than TMI
Tolerability in mice; doses as high as 10 mg/Kg given daily over a two week time course
  adverse effects: no adverse effects
Tolerability in mice; mice
  tolerability: well tolerated
[5]; [7]
  potency relative to TMI as inhibitor of 72 kDa (gelatinase A, MMP-2) collagenase: more potent than TMI
MCF-7 tumor
  tumor regression: 32%
